Tests used:
Format in all cases: cell-based, mouse
neutrophils [1] = assay: Neutrophil apoptosis, Annexin V and PI co-staining; conditions: 20 ng/ml, 24 h
Protocol: (§1) FIGS. 33A-33C depicts GM-CSF enhances neutrophil transmigration and delay apoptosis in vitro. (FIG. 33A) Percentages of migrated neutrophils with or without GM-CSF as chemoattractant in transmigration assay at 3 h post start. (FIG. 33B) Microscopic images of CFSE-labeled neutrophils in the bottom of the lower chamber in transmigration assay. (FIG. 33C) Sorted neutrophils were cultured in vitro with or without GM-CSF (20 ng/ml) for 24 h. Neutrophils undergoing apoptosis were examined by Annexin V and propidium iodide (PI) co-staining. A representative flow cytometry of three repeats was shown. *p<0.05.
(§2) Neutrophils are recruited during inflammation, in which complex interactions between neutrophils and vascular endothelial cells direct neutrophil adhesion and transmigration from circulation to inflamed tissues (Kolaczkowska and Kubes, 2013). […] Effective neutrophil apoptosis is crucial for the resolution of inflammation. However, in synovitis, neutrophil apoptosis is delayed with a result of extended survival and persistent inflammation (Wright et al., 2014). […] To determine the critical role of neutrophils in AIA, \ neutralizing antibody (1A8) specific for Ly6G was used to deplete neutrophils in vivo. […] Thus, neutrophils accumulation mediated by TH-cell-derived GM-CSF are important for AIA development.

neutrophils [2] = assay: In vitro neutrophil transmigration assay; conditions: as chemoattractant; 3 h
Protocol: as §1, §2

synovial fibroblasts = assay: Cytokine mRNA expression by synovial fibroblasts
Text: FIGS. 34A-34I depicts GM-CSF mediates proinflammatory cytokine expression by myeloid cells and synovial fibroblasts in arthritic mice. Synovial tissues were dissected from wild-type AIA mice and dissociated into single cell suspensions. (FIG. 34A) Flow cytometry plots depicting the fractionation into different populations based on differential expression of surface markers. (FIG. 34B) The mRNA expression of several proinflammatory cytokines in sorted CD45^+ TCRβ^+ (TCRβ^+ in short), CD45^+ TCRβ^−CD11c^−CD11b^+ (CD11b^+) and CD45^+ TCRβ^−CD11c^+ (CD11c^+) populations was measured by qPCR. The qPCR data were normalized to GAPDH. (FIG. 34C) The mRNA expression of IL-6, IL-1β and TNF-α in sorted Ly6C^hiLy6G^− and Ly6C^loLy6G^hi populations (gated on CD11b^+ cells). The qPCR data were normalized to GAPDH. (FIGS. 34D and 34E) The mRNA expression of IL-6 and IL-1β by BMDMs (FIG. 34D) and BMDCs (FIG. 34E) upon stimulation with 20 ng/ml GM-CSF for 1 h. The qPCR data were normalized to GAPDH. (FIGS. 34F and 34G) BMDMs (FIG. 34F) and BMDCs (FIG. 34G) were stimulated with GM-CSF at indicated concentrations (n=3 per group) for 18 h. The secretion of IL-6 in the culture supernatant was quantified by ELISA. […] The secretion of IL-1β in the culture supernatant was quantified by ELISA. […] The mRNA expression of IL-1β was measured by qPCR. […]

BMDCs = assay: Cytokine expression by bone marrow-derived dendritic cells (BMDCs)
Text: (§3) FIGS. 34A-34I depicts GM-CSF mediates proinflammatory cytokine expression by myeloid cells and synovial fibroblasts in arthritic mice. Synovial tissues were dissected from wild-type AIA mice and dissociated into single cell suspensions. (FIG. 34A) Flow cytometry plots depicting the fractionation into different populations based on differential expression of surface markers. (FIG. 34B) The mRNA expression of several proinflammatory cytokines in sorted CD45^+ TCRβ^+ (TCRβ^+ in short), CD45^+ TCRβ^−CD11c^−CD11b^+ (CD11b^+) and CD45^+ TCRβ^−CD11c^+ (CD11c^+) populations was measured by qPCR. The qPCR data were normalized to GAPDH. (FIG. 34C) The mRNA expression of IL-6, IL-1β and TNF-α in sorted Ly6C^hiLy6G^− and Ly6C^loLy6G^hi populations (gated on CD11b^+ cells). The qPCR data were normalized to GAPDH. (FIGS. 34D and 34E) The mRNA expression of IL-6 and IL-1β by BMDMs (FIG. 34D) and BMDCs (FIG. 34E) upon stimulation with 20 ng/ml GM-CSF for 1 h. The qPCR data were normalized to GAPDH. (FIGS. 34F and 34G) BMDMs (FIG. 34F) and BMDCs (FIG. 34G) were stimulated with GM-CSF at indicated concentrations (n=3 per group) for 18 h. The secretion of IL-6 in the culture supernatant was quantified by ELISA. (FIG. 34H) BMDMs were primed with LPS ([…]) in the presence of GM-CSF at indicated concentrations (n=3 per group) for 6 h, followed by stimulation with ATP (5 mM) for 30 min. The secretion of IL-1β in the culture supernatant was quantified by ELISA. (FIG. 34I) Cells were cultured in DMEM medium supplemented with 10% FBS for over 20 days with more than 5 passages to obtain synovial fibroblasts. Synovial fibroblasts were stimulated with GM-CSF (20 ng/ml) for 1 h and harvested for RNA extraction. The mRNA expression of IL-1β was measured by qPCR. The qPCR data were normalized to GAPDH. All data shown represent two independent experiments. *p<0.05, **p<0.01.
To test the regulatory role of GM-CSF in the expression of IL-6 and IL-1β, bone marrow-derived macrophages (BMDMs) and bone marrow-derived dendritic cells (BMDCs) were cultured, and stimulated with GM-CSF. […]

BMDMs = assay: Cytokine expression by bone marrow-derived macrophages (BMDMs)
Text: as §3
To test the regulatory role of GM-CSF in the expression of IL-6 and IL-1β, bone marrow-derived macrophages (BMDMs) and bone marrow-derived dendritic cells (BMDCs) were cultured, and stimulated with GM-CSF. […] To induce mature IL-1β secretion, BMDMs were primed with LPS for 6 h during which different concentrations of GM-CSF was added, followed by ATP stimulation. […] An inducible effect of GM-CSF on TNF-α expression was not observed in BMDMs, BMDCs or synovial fibroblasts (data not shown). Given the functional importance of IL-6 and IL-1β in arthritis development (Choy and Panayi, 2001), TH-cell-secreted GM-CSF may mediate synovial inflammation also via eliciting the expression of IL-6 and IL-1β from myeloid cells and synovial fibroblasts.

“GM-CSF: granulocyte macrophage colony-stimulating factor (ImmunoTools) given intraarticularly or added to cell cultures” was tested, and the neutrophil apoptosis (neutrophils [1]) was “profound efficacy in delaying neutrophil apoptosis”, the “neutrophil adhesion and migration across monolayers of endothelial cells” value (neutrophils [2]) was “significantly enhanced” and the “IL-1β mRNA expression in synovial fibroblasts” value (synovial fibroblasts; 20 ng/ml, 1 h) was “increased IL-1β mRNA expression”. For the same substance, the “TNF-α expression in synovial fibroblasts” value (synovial fibroblasts; data not shown) was “not observed”, the “mRNA expression of IL-6 and IL-1β in BMDCs” value (BMDCs; 20 ng/ml, 1 h) was “quickly upregulated” and the “secretion of IL-6 from BMDCs” value (BMDCs; 18 h, ELISA) was “markedly increased”. The “TNF-α expression in BMDCs” value (BMDCs; data not shown) was “not observed”, the “mRNA expression of IL-6 and IL-1β in BMDMs” value (BMDMs; 20 ng/ml, 1 h) was “quickly upregulated” and the “secretion of IL-6 from BMDMs” value (BMDMs; 18 h, ELISA) was “markedly increased”. The “secretion of IL-1β from BMDMs” value (BMDMs; LPS priming 6 h, then ATP 30 min, ELISA) was “significantly enhanced” and the “TNF-α expression in BMDMs” value (BMDMs; data not shown) was “not observed”.

Reference: US10690666B2, “Methods and compositions for modulating TH-GM cell function” (National University of Singapore, priority 2014, dated 2020)
